Results published in paper PMC12423301, “Astrocytic monoamine oxidase B (MAOB)–gamma-aminobutyric acid (GABA) axis as a molecular brake on repair following spinal cord injury” (Signal Transduction and Targeted Therapy, 2025).
“And” between values parts separate entries of the source, which are not always exact repeats. Equal entries are not always repeated. Where two headings read alike, the source gives them in different places.

Legend:
[1] = in vivo; conditions: both, cynomolgus monkey, po
[2] = Sprague-Dawley, rat, in vivo
[3] = in vivo; conditions: Sprague-Dawley, rat
[4] = cynomolgus monkey, in vivo, po
[5] = Preclinical pharmacokinetics in monkeys; assay type: in vivo, Cynomolgus monkey; conditions: for AUC(0-t) / Vd/F / Tmax / AUC(0-inf) / CL/F / half-life: cynomolgus monkey, in vivo
Protocol: In a pharmacokinetic study, plasma PK parameters were measured after a single oral administration of […]
dose group and at 4 to 6 hours after administration in the 30 mg/kg dose group. In the elimination phase, the […]
Systemic exposure (AUClast) to the test substance was 30587 and 80770 ng*hr/mL, respectively. […]

[6] = tested on: diphtheria toxin receptor-inducible transgenic mice; assay type: in vivo, mouse
[7] = tested on: APP/PS1 transgenic mice; test: Tonic GABA current, neuronal firing and DAO compensation in APP/PS1 mice; assay type: in vivo, mouse

CS(=O)(=O)O.C[C@H](NCc1ccc(-c2ccc(C(F)(F)F)cc2)cc1)C(N)=O [KDS2010, (S)-2-(((4’-Trifluoromethylbiphenyl-4-yl)methyl)amino)propanamide methane-sulfonate]
NOAEL at 4 weeks [1]: 40 mg/kg
approximate lethal dose ([2]; iv): ≥ 100 mg/kg
approximate lethal dose ([2]; po): ≥ 1400 mg/kg
MTD ([3]; po): 700 mg/kg
NOAEL at 4 weeks ([3]; female, NOAEL): 30 mg/kg
NOAEL at 4 weeks ([3]; female, human equivalent dose (HED) of NOAEL): 4.84 mg/kg
NOAEL at 4 weeks ([3]; male, NOAEL): 50 mg/kg/day
approximate lethal dose [4]: ≥ 100 mg/kg
AUC(0-t) [5]: ~13000 ng·h/mL
Vd/F ([5]; iv, 5 mg/kg): 3.714 ± 0.609 L/kg
increase in the AUC, 30 mg/kg vs 10 mg/kg ([5]; cynomolgus monkeys): 5 fold and ~ 4.6 fold
increase rate of Cmax vs dose ([5]; male monkeys, 10 and 30 mg/kg): slightly lower
Tmax ([5]; male): 2 to 6 h
AUC(0-inf) ([5]; male, po, 10 mg/kg): 43600 ng·h/mL
CL/F ([5]; male, po, 10 mg/kg): 3.8 mL/min/kg
Vd/F ([5]; male, po, 10 mg/kg): 4.49 ± 0.61 L/kg
half-life ([5]; male, po, 10 mg/kg, t1/2): 13.7 ± 0.48 h
AUC(0-inf) ([5]; male, po, 30 mg/kg): 202000 ± 76800 ng·h/mL
CL/F ([5]; male, po, 30 mg/kg): 2.58 mL/min/kg
Vd/F ([5]; male, po, 30 mg/kg): 6.27 ± 1.67 L/kg
half-life ([5]; male, po, 30 mg/kg, t1/2): 16.9 h
AUC(0-inf) ([5]; male, cynomolgus, po, 10 mg/kg): 43600 ng·h/mL
AUC(0-t) ([5]; male, cynomolgus, po, 10 mg/kg): 30600 ng·h/mL
Tmax ([5]; male, cynomolgus, po, 10 mg/kg): 2 h
half-life ([5]; male, cynomolgus, po, 10 mg/kg, mean half-life (t1/2)): 13.7 h
half-life ([5]; male, cynomolgus, po, 10 mg/kg, t1/2): 13.7 h
AUC(0-inf) ([5]; male, cynomolgus, po, 30 mg/kg): ~202000 ng·h/mL
AUC(0-t) ([5]; male, cynomolgus, po, 30 mg/kg): 80800 ng·h/mL
Tmax ([5]; male, cynomolgus, po, 30 mg/kg): 4 to 6 h
half-life ([5]; male, cynomolgus, po, 30 mg/kg, mean half-life (t1/2)): 31.1 h
half-life ([5]; male, cynomolgus, po, 30 mg/kg, t1/2): ~31.1 h
brain atrophy [6]: restored to the level of control group
neurofilament (NF) [6]: reducing
neuronal factors NeuN and MAP2 [6]: increasing
survival [6]: increase in survival
tonic GABA current in granule cells of the dentate gyrus ([7]; 1 mg/kg and 10 mg/kg vs induced control group): dose-dependent reduction
neuronal firing ([7]; 4-week repeated dosing test, at 2 weeks and 4 weeks): maintained at a level similar to that of the normal group
DAO (diamine oxidase) compensatory mechanism ([7]; long-term administration): did not induce
